# What was measured:
# [1] = system: MDA-MB-231 xenograft (human triple negative breast cancer); experiment: Antitumor efficacy and induction of cures in the MDA-MB-231 xenograft model (Examples 1A, 1B); format: in vivo, mouse
# Procedure: (§1) Female athymic nude mice (Crl:NU(NCr)-Foxnlnu, Charles River) were used when ten weeks old with a body weight (BW) range of 19.7-27.1 g on Day 1 of the study. The animals were fed ad libitum water (reverse osmosis, 1 ppm Cl) and NIH 31 Modified and Irradiated Lab Diet® consisting of 18.0% crude protein, 5.0% crude fat, and 5.0% crude fiber. The mice were housed on irradiated Enrich-o'Cobs™ Laboratory Animal Bedding in static micro-isolators on a 12-hour light cycle at 20-22° C. (68-72° F.) and 40-60% humidity. Charles River Discovery Services North Carolina (CR Discovery Services) specifically complies with the recommendations of the Guide for Care and Use of Laboratory Animals with respect to restraint, husbandry, surgical procedures, feed and fluid regulation, and veterinary care. The animal care and use program at CR Discovery Services is accredited by the Association for Assessment and Accreditation of Laboratory Animal Care International (AAALAC), which assures compliance with accepted standards for the care and use of laboratory animals. These considerations were taken into account in the way that the dosage regimes were designed and implemented.
# The human MDA-MB-231 breast adenocarcinoma cells were grown to mid-log phase in RPMI-1640 medium containing 10% fetal bovine serum, 2 mM glutamine, 100 units/mL sodium penicillin G, 25 μg/mL gentamicin, and 100 μg/mL streptomycin sulfate. The tumor cells were cultured in tissue culture flasks in a humidified incubator at 37° C./5% CO2 and 95% air, harvested during exponential growth and resuspended in cold Phosphate-buffered saline (PBS). Each test animal received a subcutaneous (s.c.) injection of 5×10^6 MDA-MB-231 cells (0.1 mL cell suspension) into the right flank, and tumor growth was monitored as the average tumor size approached the target range of 100-150 mm^3. Tumors were measured (mm) in two dimensions using calipers, and volume was calculated using the formula: Tumor Volume (TV) (mm^3)=(width^2×length)/2. Eighteen days after tumor cell implantation, on Day 1 of the study, mice with individual tumor volumes ranging from 75 to 172 mm^3 were randomized into groups of 8-10 animals, with group mean tumor volumes of 114-124 mm^3.
# BAL0101553 was dissolved in 0.9% NaCl in water buffered to pH 5 with 1% sodium acetate to yield 2, 2.5 and 3 mg/mL dosing solutions, providing 20, 25 and 30 mg/kg dosages, respectively, in 10 mL/kg dosing volumes. Eribulin (purchased from Eisai Co., Lot. No. 6217, 6288, 6289 and 6309) at 0.5 mg/mL concentration was diluted in saline to yield a 0.01, 0.025 and 0.05 mg/mL dosing solutions, providing 0.1, 0.25 and 0.5 mg/kg dosages, respectively, in a dosing volume of 10 mL/kg.
# (§2) Groups of mice (n=8-10) bearing MDA-MB-231 tumors were dosed as outlined in the Tables 1 and 3. All doses were adjusted to 10 mL/kg. The control groups received oral doses of vehicle (pH 5 buffered 0.9% NaCl solution). Eribulin was administered i.v. and BAL101553 orally. When eribulin and BAL0101553 were dosed in combination, Eribulin was administered to all groups first followed by BAL0101553 dosing within 30 minutes of the first regimen.
# Body weights were recorded daily for days 1-5 and then twice weekly until the end of the study and tumor volumes were recorded twice weekly until the end of the experiment. These parameters were analyzed and graphically represented by using GraphPad-Prism™ 5 for Windows according to standard procedure. […] Tumor free animals at the end of the study time were assessed for residual MDA-MB-231 tumor cells by pathological methods. Skin and subcutaneous tissue including the tumor cell inoculation site from the flank region were resected, preserved in formalin and embedded in paraffin.
# [2] = Tolerability in the MDA-MB-231 xenograft model (body weight, mortalities); conditions: for Final body-weight / Body-weight change: mean ± SD
# Procedure: as §1, with “The” for “Female athymic nude mice (Crl:NU(NCr)-Foxnlnu, Charles River) were used when ten weeks old with a body weight (BW) range of 19.7-27.1 g on Day 1 of the study. The animals were fed ad libitum water (reverse osmosis, 1 ppm Cl) and NIH 31 Modified and Irradiated Lab Diet® consisting of 18.0% crude protein, 5.0% crude fat, and 5.0% crude fiber. The”
# as §2, with “All” for “Groups of mice (n=8-10) bearing MDA-MB-231 tumors were dosed as outlined in the Tables 1 and 3. All”
# Body weights were recorded daily for days 1-5 and then twice weekly until the end of the study and tumor volumes were recorded twice weekly until the end of the experiment. These parameters were analyzed and graphically represented by using GraphPad-Prism™ 5 for Windows according to standard procedure. […] Skin and subcutaneous tissue including the tumor cell inoculation site from the flank region were resected, preserved in formalin and embedded in paraffin. Sections of approximately 5 μm were mounted on glass slides and stained with hematoxylin/eosin and were evaluated by a trained pathologist, to identify residual tumor cells at the site of injection, and were being reported as positive for the existence of residual tumor cells or as negative for a complete lack of any evidence of residual tumor cells.
# [3] = Day 26, BAL101553 p.o. 20 mg/kg qd D1-D21, 20 mg/kg qd D25-D43
# [4] = Day 100 (endpoint), BAL101553 p.o. 20 mg/kg qd D1-D21, 20 mg/kg qd D25-D43
# [5] = E1A, Day 25, p.o. 20 mg/kg qd x5/qw D1-D9, 20 mg/kg qd D12-D34
# [6] = E1A, Day 25, p.o. 30 mg/kg qd x5/qw D1-D9, 25 mg/kg qd D12-D34
# [7] = E1A, Day 85 (endpoint), p.o. 20 mg/kg qd x5/qw D1-D9, 20 mg/kg qd D12-D34
# [8] = E1A, Day 85 (endpoint), p.o. 30 mg/kg qd x5/qw D1-D9, 25 mg/kg qd D12-D34
# [9] = E1B, Day 26, p.o. 20 mg/kg qd D1-D21, 20 mg/kg qd D25-D43
smiles,measurement,setting,value
"N#CCCNc1nonc1-c1nc2ccccc2n1CC(=O)c1ccc(NC(=O)[C@@H](N)CCCCN)cc1 [BAL101553, (S)-2,6-Diamino-hexanoic acid [4-(2-{2-[4-(2-cyano-ethylamino)-furazan-3-yl]-benzoimidazol-1-yl}-acetyl)-phenyl]-amide]",# of regressed tumors (total),[1]; [3],1 (10)
same,T/C,[1]; [3],0.12
same,# of confirmed cures (total),[1]; [4],1 (10)
same,# of tumors with TV ≤ 4 mm^3 (total),[1]; [4],0 (10)
same,% cures,[1]; [4],10%
same,# of regressed tumors (total),[1]; [5],0 (8)
same,T/C,[1]; [5],0.21
same,# of regressed tumors (total),[1]; [6],4 (8)
same,T/C,[1]; [6],0.07
same,# of confirmed cures (total),[1]; [7],0 (8)
same,# of tumors with TV ≤ 4 mm^3 (total),[1]; [7],0 (8)
same,% cures,[1]; [7],0%
same,# of confirmed cures (total),[1]; [8],0 (8)
same,# of tumors with TV ≤ 4 mm^3 (total),[1]; [8],0 (8)
same,% cures,[1]; [8],0%
same,Final body-weight,[2]; [5],26.6 ± 1.6 g
same,Final body-weight,[2]; [6],25 ± 1.9 g
same,"T/C (TC-BW, body weight)",[2]; [5],1.02
same,"T/C (TC-BW, body weight)",[2]; [6],1.00
same,Body-weight change,"[2]; E1A, day-0 until day-25, p.o. 20 mg/kg qd x5/qw D1-D9, 20 mg/kg qd D12-D34",2.8 ± 0.7 g
same,Body-weight change,"[2]; E1A, day-0 until day-25, p.o. 30 mg/kg qd x5/qw D1-D9, 25 mg/kg qd D12-D34",2.0 ± 0.8 g
same,Mortalities,"[2]; E1A, p.o. 20 mg/kg qd x5/qw D1-D9, 20 mg/kg qd D12-D34",0/8
same,Final body-weight,[2]; [9],25.9 ± 1.4 g
same,"T/C (TC-BW, body weight)",[2]; [9],1.04
same,Body-weight change,"[2]; E1B, day-0 until day-26, p.o. 20 mg/kg qd D1-D21, 20 mg/kg qd D25-D43",2.6 ± 0.7 g
same,Mortalities,"[2]; E1B, p.o. 20 mg/kg qd D1-D21, 20 mg/kg qd D25-D43",0/10
